In patent US12590097B2 (priority 2020, dated 2026):

Tests used:
in vitro = in vitro ADME; conditions: human plasma containing 5 mM MgCl2, 37° C., LC-MS/MS; read-out: T1/2 (h) Plasma (converted)
Description: (§1) To 1 mL of human plasma containing 5 mM MgCl2 was added 2 μL of a solution of 50 mM compound to be tested in DMSO, and the mixture was incubated at 37° C. 100 μL of sample was taken at different time points, into which 200 μL of methanol was added, and the mixture was centrifuged at 14000 rpm at 4° C. for 30 min. 100 μL of supernatant was taken, into which 100 μL of methanol was added, and the mixture was frozen at −20° C. for later use.
(§2) The content of the compound to be tested in plasma or liver microsome was determined by LC-MS/MS, and the half-life was calculated. Instruments: Prominence 20 A liquid chromatograph from Shimadzu, API 4000 Q-TRAP mass spectrometer from Applied Biosystems; mass spectrometry conditions: ESI negative ion detection; chromatographic column: Diamonsil C18 (100×4.6 mm, 5 μm) chromatographic column; column temperature: 40° C.; flow rate: 0.5 mL/min. Mobile phase A: methanol; mobile phase B: 5% aqueous methanol solution (containing 2 mM ammonium formate); flow rate: 0.5 mL/min; gradient elution as shown in the following table: […]

[1] = Evaluation of metabolic stability in human liver microsome (human liver S9 components); assay type: in vitro ADME; conditions: liver S9 components (headed liver microsome); human liver S9 components 4 mg/mL, pH 7.4, 37° C., LC-MS/MS; read-out: T1/2 (h) Liver microsome (converted)
Description: as §1, with “buffer” for “human plasma”, “MgCl2 and 50 mM K2HPO4 (pH 7.4)” for “MgCl2”, “DMSO, then human liver S9 components were added to reach 4 mg/mL,” for “DMSO,”, “300” for “200”, “rpm for 30 min” for “rpm”, “C.” for “C. for 30 min.”
as §2

[2] = Pharmacokinetic evaluation in beagle dogs; assay type: in vivo; conditions: for Cmax: male, dog, po, plasma, intragastric, II-1 5 mg/kg, II-6 5.13 mg/kg, I-5-B 5.27 mg/kg, read-out: Cmax(ng/ml) Prodrug prototype
Description: Male beagle dogs (7-8 months old, weighing 7-10 kg) were randomly divided into groups (2 beagle dogs per group) and weighed. The beagle dogs were fasted for 12 h before administration. The sample to be tested at a certain concentration was ground and suspended in 0.5% sodium carboxymethylcellulose solution, and II-1 (5 mg/kg), II-6 (5.13 mg/kg) or I-5-B (5.27 mg/kg) was administered intragastrically to the beagle dogs. Before administration and 0.5 h, 1 h, 2 h, 4 h, 6 h, 8 h, 10 h and 24 h after administration, 0.5 mL of blood was collected from the cephalic vein of forelimb separately, anticoagulated with sodium heparin, centrifuged to separate out the plasma, which was stored at −80° C. for determination.
50 μL of drug-containing plasma was taken, into which 50 μL of methanol and 100 μL of internal-standard acetaminophen methanol solution were added, and the mixture was vortexed for 1 min and centrifuged at 12000 rpm for 10 min at 4° C. The supernatant was taken and placed in an internal insert tube for quantitative analysis by LC-MS/MS (the method was the same as that in Example 7).

hepatitis B = conditions: ducks; disclosed in CN103804417A; cited from earlier work

SMILES: C=C1[C@H](CO[P@@](=O)(N[C@@H](C)C(=O)OC)Oc2ccccc2)[C@@H](O)C[C@@H]1n1cnc2c(=O)[nH]c(N)nc21 [II-1, 2-amino-1,9-dihydro-9-[(1S,3R,4S)-4-hydroxy-3-((S)-((S)-1-methoxycarbonylethylamino-phenoxy-phosphoryl)-oxymethyl)-2-methylenecyclopentyl]-6H-purin-6-one]
- half-life at 100 µM (in vitro): 15.3 h
- half-life at 100 µM [1]: 0.27 h
- plasma concentration of the prodrug prototype (in words, versus I-5-B) ([2]; intragastric administration): significantly lower than that of the I-5-B
- Cmax [2]: 331 ng/mL

SMILES: C=C1[C@H](CO[P@@](=O)(N[C@@H](C)C(=O)OC)Oc2ccc(OC)cc2)[C@@H](O)C[C@@H]1n1cnc2c(=O)[nH]c(N)nc21 [II-5, 2-amino-1,9-dihydro-9-[(1S,3R,4S)-4-hydroxy-3-((S)-((S)-1-methoxycarbonylethylamino-(4-methoxy-phenyl)oxy-phosphoryl)-oxymethyl)-2-methylenecyclopentyl]-6H-purin-6-one]
- half-life at 100 µM (in vitro): 4.9 h
- half-life at 100 µM [1]: 0.03 h

SMILES: C=C1[C@H](CO[P@@](=O)(N[C@@H](C)C(=O)OC)Oc2ccc(C)cc2)[C@@H](O)C[C@@H]1n1cnc2c(=O)[nH]c(N)nc21 [II-6, 2-amino-1,9-dihydro-9-[(1S,3R,4S)-4-hydroxy-3-((S)-((S)-1-methoxycarbonylethylamino-(4-methyl-phenyl)oxy-phosphoryl)-oxymethyl)-2-methylenecyclopentyl]-6H-purin-6-one]
- half-life at 100 µM (in vitro): 10.8 h
- half-life at 100 µM [1]: 0.19 h
- Cmax [2]: 633 ng/mL

SMILES: C=C1[C@H](CO[P@@](=O)(N[C@@H](C)C(=O)OC)Oc2ccc(F)cc2)[C@@H](O)C[C@@H]1n1cnc2c(=O)[nH]c(N)nc21 [II-2, 2-amino-1,9-dihydro-9-[(1S,3R,4S)-4-hydroxy-3-((S)-((S)-1-methoxycarbonylethylamino-(4-fluoro-phenyl)oxy-phosphoryl)-oxymethyl)-2-methylenecyclopentyl]-6H-purin-6-one]
- half-life at 100 µM (in vitro): 10.6 h
- half-life at 100 µM [1]: 0.13 h

SMILES: C=C1[C@H](CO[P@@](=O)(N[C@@H](C)C(=O)OC(C)C)Oc2ccccc2)[C@@H](O)C[C@@H]1n1cnc2c(=O)[nH]c(N)nc21 [I-5-B, 2-amino-1,9-dihydro-9-[(1S,3R,4S)-4-hydroxy-3-((S)-((S)-1-isopropoxycarbonylethylamino-phenoxy-phosphoryl)-oxymethyl)-2-methylenecyclopentyl]-6H-purin-6-one, reference compound]
- half-life at 100 µM (in vitro): > 24 h
- half-life at 100 µM [1]: 0.4 h
- prodrug prototype present in plasma (in words) [2]: high concentration
- transformation into the active form (in words) [2]: can not be completely transformed into the active form
- Cmax [2]: 864 ng/mL
- antiviral effect on hepatitis B in vivo (in words) (hepatitis B): good antiviral effect

SMILES: C=C1[C@H](CO[P@@](=O)(N[C@@H](C)C(=O)OC)Oc2ccc(Br)cc2)[C@@H](O)C[C@@H]1n1cnc2c(=O)[nH]c(N)nc21 [II-4, 2-amino-1,9-dihydro-9-[(1S,3R,4S)-4-hydroxy-3-((S)-((S)-1-methoxycarbonylethylamino-(4-bromo-phenyl)oxy-phosphoryl)-oxymethyl)-2-methylenecyclopentyl]-6H-purin-6-one]
- half-life at 100 µM (in vitro): 6.2 h
- half-life at 100 µM [1]: 0.06 h

SMILES: C=C1[C@H](CO[P@@](=O)(N[C@@H](C)C(=O)OC)Oc2ccc(Cl)cc2)[C@@H](O)C[C@@H]1n1cnc2c(=O)[nH]c(N)nc21 [II-3, 2-amino-1,9-dihydro-9-[(1S,3R,4S)-4-hydroxy-3-((S)-((S)-1-methoxycarbonylethylamino-(4-chloro-phenyl)oxy-phosphoryl)-oxymethyl)-2-methylenecyclopentyl]-6H-purin-6-one]
- half-life at 100 µM (in vitro): 7.5 h
- half-life at 100 µM [1]: 0.06 h
